Measurements as given in US8227240B2, “Systems for screening pharmaceutical chemicals” (The Washington University, priority 2001, dated 2012).

System: bio-artificial tissues including chicken embryo fibroblasts
Test: Tissue indentation device: stiffness and active cell force after CD (Example 16)
Assay type: cell-based
Description: Bio-artificial tissues were generated by mixing cells and neutralized collagen, as described elsewhere (Wakatsuki et al., 2000, Biophys. J. 79:2353-2368). Briefly, cells were mixed with neutralized rat-tail collagen (Millipore Billerica, Mass.) and media containing 10% Fetal Bovine Serum (FBS). 200-250[…]1 of this solution is poured into wells as described below. The tissues are cultured in Dulbecco's modified Eagle's medium (DMEM) supplemented with 10% FBS and antibiotics (penicillin and streptomycin) in an incubator for two or three days. The bio-artificial tissue membrane was stretched using a mechanical testing device is (as detailed below). During the mechanical measurements, culture medium was switched to a HEPES-buffered DMEM, pH 7.4, and maintained at 37° C.
Cells used in this study included: (1) rat embryo fibroblasts (REF52 cell line) maintained in DMEM supplemented with 10% FBS split once a week (kind gift from Dr. Wysolmerski, Department of Neurobiology and Anatomy, West Virginia University School of Medicine), (2) chicken embryo fibroblasts (CEFs) isolated from 10 day old chicken embryos using a previously described protocol (Wakatsuki et al., 2000, Biophys. J. 79(5):2353-2368) maintained in DMEM supplemented with 3% FBS (passage 2 to 5), and (3) smooth muscle cells (SMC) isolated from adult rat aorta using a previously described protocol (Griendling et al., 1991, J. Biol. Chem. 266(23):15498-15504) cultured in DMEM supplemented with 10% FBS and 1% […] (passage 10-12).
A chamber to hold 8 bio-artificial tissues was machined from a polycarbonate bar (25×60×10 mm) using a tabletop CNC mill (Sherline Products Inc., Vista, Calif.). The 8 square wells of 8×8 mm contained 2 horizontal stainless-steel (medical grade) bars (1 mm diameter) which centers were located 2 mm above bottom and 2 mm beside each wall and were 4 mm apart (FIG. 29A). A microscope cover-slip (No. 1 thickness, Fisher brand) sealed the bottom of wells using silicon glue (Dow chemicals) to facilitate microscopic imaging of cells and bio-artificial tissues. A pre-polymerized solution of bio-artificial tissues was poured into the wells until the horizontal bars became immersed to half of its depth. During tissue culture, the solution gelled and entrapped cells that remodeled and compacted the gel (Tranquillo, 1999, Biochem. Soc. Symp. 65:27-42) by cell traction force. By the next day, the bio-artificial tissues detached from the bottom and side wall to form a membrane spanning between the two bars. The bio-artificial tissues stiffened to form a thin layer of tissue overlaying the bars and generated active tension within the bio-artificial tissues. The chambers were sterilized by UV before usage and kept in a 100 mm sterile Petri dish to avoid any contamination.
The mechanical testing device is depicted in FIG. 29A. A horizontal linear actuator (FIG. 29A-a, ER32-SRN300A, Parker, Wadsworth, Ohio) automatically places the center of each well at right angles below a force-probe (FIG. 29A-c). The bottom of L-shaped probe indents and bends the bio-artificial tissues at the middle (FIG. 29D). The other end of the probe is connected to an isometric force transducer (FIG. 29A-b, model 52-9545, Harvard Apparatus, South Natick, Mass.) and moved by a vertical linear actuator (FIG. 29A-a, ER32-SRN100A, Parker, Wadsworth, Ohio). During the tests, the temperature of bio-artificial tissues in the wells was maintained at 37° C. using a water jacketed warm plate (FIG. 29A-e) connected to a circulating water bath (HAAKE C10-P5, Thermo Fisher Scientific, Inc. Waltham, Mass.). The linear actuators were controlled simultaneously by a personal computer that also recorded the signal generated by the force transducer. The bio-artificial tissues can be quickly placed in a holder at its designated position for mechanical measurements. A time dependent function to lengthen and shorten bio-artificial tissues was predetermined using the computer software of the device. […]

## C=C1[C@@H](C)[C@H]2[C@H](Cc3ccccc3)NC(=O)[C@]23[C@H](OC(C)=O)/C=C/[C@@](C)(O)C(=O)[C@@H](C)C/C=C/[C@H]3[C@@H]1O [CD, cytochalasin D]
200 pM to 2 μM CD, two hours post-treatment
  pre-force (active cell force, CD treatment over control): concentration-dependent reduction
[CD] 0.2 nM
  EACD/EACT (ratio of post- over pre- CD treated stiffness): 0.932 ± 0.013
  zCD-zCT (difference in sample surface height between post- and pre- CD treated samples): −8.925 ± 9.257 μm
[CD] 0.9 nM
  EACD/EACT (ratio of post- over pre- CD treated stiffness): 0.938 ± 0.016
  zCD-zCT (difference in sample surface height between post- and pre- CD treated samples): −21.761 ± 8.982 μm
[CD] 4 nM
  EACD/EACT (ratio of post- over pre- CD treated stiffness): 0.986 ± 0.015
  zCD-zCT (difference in sample surface height between post- and pre- CD treated samples): −23.707 ± 13.222 μm
[CD] 20 nM
  EACD/EACT (ratio of post- over pre- CD treated stiffness): 0.979 ± 0.013
  zCD-zCT (difference in sample surface height between post- and pre- CD treated samples): 4.550 ± 7.653 μm
[CD] 90 nM
  EACD/EACT (ratio of post- over pre- CD treated stiffness): 0.970 ± 0.016
  zCD-zCT (difference in sample surface height between post- and pre- CD treated samples): −22.054 ± 12.989 μm
[CD] 400 nM
  EACD/EACT (ratio of post- over pre- CD treated stiffness): 0.964 ± 0.021
  zCD-zCT (difference in sample surface height between post- and pre- CD treated samples): −17.607 ± 6.533 μm
[CD] 2000 nM
  EACD/EACT (ratio of post- over pre- CD treated stiffness): 1.077 ± 0.050
  zCD-zCT (difference in sample surface height between post- and pre- CD treated samples): −35.318 ± 15.189 μm
After the CD treatment
  EA (mechanical properties of extracellular matrix): did not change at all
